US11447466B2, “Substituted indole compounds useful as inhibitors of TLR7/8/9” (BRISTOL-MYERS SQUIBB COMPANY, priority 2017, dated 2022)
pIC50: −log10 of the molar value.

Legend:
Assay type in all cases: cell-based
human TLR8 = target: T1, human TLR8 (Homo sapiens, UniProt Q9NR97); assay: TLR8 inhibition reporter assay (HEK-Blue SEAP reporter, R848 stimulation); details: HEK-Blue cells overexpressing human TLR8, SEAP reporter, R848 15.9 μM, 22 hour incubation
T1 construct: host or cells: HEK-Blue cells
T1 sequence (Q9NR97 27-1041): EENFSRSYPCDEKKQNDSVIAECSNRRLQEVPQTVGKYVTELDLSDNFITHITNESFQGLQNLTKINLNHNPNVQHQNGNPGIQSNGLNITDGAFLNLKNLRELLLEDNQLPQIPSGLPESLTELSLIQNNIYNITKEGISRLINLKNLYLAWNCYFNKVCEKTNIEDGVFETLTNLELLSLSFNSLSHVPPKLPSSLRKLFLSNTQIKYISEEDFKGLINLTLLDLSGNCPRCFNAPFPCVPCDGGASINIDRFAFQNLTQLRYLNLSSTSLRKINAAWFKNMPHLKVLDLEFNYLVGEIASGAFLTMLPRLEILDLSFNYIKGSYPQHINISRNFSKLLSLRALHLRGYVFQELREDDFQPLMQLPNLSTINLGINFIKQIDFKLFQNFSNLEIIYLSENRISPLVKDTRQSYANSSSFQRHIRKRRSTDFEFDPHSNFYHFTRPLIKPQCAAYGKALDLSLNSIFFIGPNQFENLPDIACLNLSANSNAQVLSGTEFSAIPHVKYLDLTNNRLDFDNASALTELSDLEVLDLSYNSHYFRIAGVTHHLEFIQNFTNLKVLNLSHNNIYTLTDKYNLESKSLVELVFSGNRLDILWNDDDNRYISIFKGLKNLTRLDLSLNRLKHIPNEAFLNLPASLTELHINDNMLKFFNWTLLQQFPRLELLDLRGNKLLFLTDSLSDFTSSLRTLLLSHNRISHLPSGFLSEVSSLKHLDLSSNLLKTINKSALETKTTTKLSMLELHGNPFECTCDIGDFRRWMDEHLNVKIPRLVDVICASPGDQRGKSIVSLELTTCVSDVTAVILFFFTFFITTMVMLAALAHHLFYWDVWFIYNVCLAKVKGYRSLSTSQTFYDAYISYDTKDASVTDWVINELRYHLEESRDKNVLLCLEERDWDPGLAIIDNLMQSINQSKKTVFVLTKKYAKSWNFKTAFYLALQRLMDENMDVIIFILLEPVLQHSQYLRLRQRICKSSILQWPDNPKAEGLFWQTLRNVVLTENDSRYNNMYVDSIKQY
Experimental: (§1) TLR7/8/9 Inhibition Reporter Assays
(§2) HEK-Blue™-cells (Invivogen) overexpressing human TLR7, TLR8 or TLR9 receptors were used for screening inhibitors of these receptors using an inducible SEAP (secreted embryonic alkaline phosphatase) reporter gene under the control of the IFN-β minimal promoter fused to five NF-κB and AP-1-binding sites. Briefly, cells are seeded into Greiner 384 well plates (15000 cells per well for TLR7, 20,000 for TLR8 and 25,000 for TLR9) and then treated with test compounds in DMSO to yield a final dose response concentration range of 0.05 nM-50 μM. After a 30 minute compound pre-treatment at room temperature, the cells are then stimulated with a TLR7 ligand (gardiquimod at a final concentration of 7.5 μM), TLR8 ligand (R848 at a final concentration of 15.9 μM) or TLR9 ligand (ODN2006 at a final concentration of 5 nM) to activate NF-κB and AP-1 which induce the production of SEAP. After a 22 hour incubation at 37° C., 5% CO2, SEAP levels are determined with the addition of HEK-Blue™ Detection reagent (Invivogen), a cell culture medium that allows for detection of SEAP, according to manufacturer's specifications. The percent inhibition is determined as the % reduction in the HEK-Blue signal present in wells treated with agonist plus DMSO alone compared to wells treated with a known inhibitor.

human TLR7 = target: T2, human TLR7 (Homo sapiens, UniProt Q9NYK1); assay: TLR7 inhibition reporter assay (HEK-Blue SEAP reporter, gardiquimod stimulation); details: HEK-Blue cells overexpressing human TLR7, SEAP reporter, gardiquimod 7.5 μM, 22 hour incubation
T2 construct: host or cells: HEK-Blue cells
T2 sequence (Q9NYK1 27-1049): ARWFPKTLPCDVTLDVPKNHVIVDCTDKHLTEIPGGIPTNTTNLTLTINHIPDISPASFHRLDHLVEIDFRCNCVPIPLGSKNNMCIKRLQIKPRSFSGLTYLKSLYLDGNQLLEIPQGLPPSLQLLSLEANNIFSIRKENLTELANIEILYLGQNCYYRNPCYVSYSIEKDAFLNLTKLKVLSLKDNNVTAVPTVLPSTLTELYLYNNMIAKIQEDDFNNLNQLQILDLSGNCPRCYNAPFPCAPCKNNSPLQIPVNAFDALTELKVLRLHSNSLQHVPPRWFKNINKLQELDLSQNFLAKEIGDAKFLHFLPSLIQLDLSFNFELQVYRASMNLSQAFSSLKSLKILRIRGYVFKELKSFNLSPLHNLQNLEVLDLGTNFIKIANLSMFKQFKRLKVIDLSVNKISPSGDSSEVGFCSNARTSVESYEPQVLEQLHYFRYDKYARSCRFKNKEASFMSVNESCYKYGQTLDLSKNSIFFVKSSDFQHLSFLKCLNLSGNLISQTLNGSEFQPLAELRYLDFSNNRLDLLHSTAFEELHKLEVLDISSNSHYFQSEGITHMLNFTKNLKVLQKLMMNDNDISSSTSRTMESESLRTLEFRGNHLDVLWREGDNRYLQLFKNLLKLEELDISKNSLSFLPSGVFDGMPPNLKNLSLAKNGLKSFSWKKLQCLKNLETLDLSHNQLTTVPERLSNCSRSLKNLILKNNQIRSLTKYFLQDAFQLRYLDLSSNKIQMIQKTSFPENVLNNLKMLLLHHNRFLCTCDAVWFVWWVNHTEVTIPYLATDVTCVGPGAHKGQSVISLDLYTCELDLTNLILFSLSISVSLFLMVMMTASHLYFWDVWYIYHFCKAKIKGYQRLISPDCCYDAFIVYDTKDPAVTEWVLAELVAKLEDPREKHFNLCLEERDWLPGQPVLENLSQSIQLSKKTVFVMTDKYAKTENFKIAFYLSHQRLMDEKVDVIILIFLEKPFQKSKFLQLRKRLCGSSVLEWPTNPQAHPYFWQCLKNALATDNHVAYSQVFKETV
Experimental: as §1, §2

human TLR9 = target: T3, human TLR9 (Homo sapiens, UniProt Q9NR96); assay: TLR9 inhibition reporter assay (HEK-Blue SEAP reporter, ODN2006 stimulation); details: HEK-Blue cells overexpressing human TLR9, SEAP reporter, ODN2006 5 nM, 22 hour incubation
T3 construct: host or cells: HEK-Blue cells
T3 sequence (Q9NR96 26-1032): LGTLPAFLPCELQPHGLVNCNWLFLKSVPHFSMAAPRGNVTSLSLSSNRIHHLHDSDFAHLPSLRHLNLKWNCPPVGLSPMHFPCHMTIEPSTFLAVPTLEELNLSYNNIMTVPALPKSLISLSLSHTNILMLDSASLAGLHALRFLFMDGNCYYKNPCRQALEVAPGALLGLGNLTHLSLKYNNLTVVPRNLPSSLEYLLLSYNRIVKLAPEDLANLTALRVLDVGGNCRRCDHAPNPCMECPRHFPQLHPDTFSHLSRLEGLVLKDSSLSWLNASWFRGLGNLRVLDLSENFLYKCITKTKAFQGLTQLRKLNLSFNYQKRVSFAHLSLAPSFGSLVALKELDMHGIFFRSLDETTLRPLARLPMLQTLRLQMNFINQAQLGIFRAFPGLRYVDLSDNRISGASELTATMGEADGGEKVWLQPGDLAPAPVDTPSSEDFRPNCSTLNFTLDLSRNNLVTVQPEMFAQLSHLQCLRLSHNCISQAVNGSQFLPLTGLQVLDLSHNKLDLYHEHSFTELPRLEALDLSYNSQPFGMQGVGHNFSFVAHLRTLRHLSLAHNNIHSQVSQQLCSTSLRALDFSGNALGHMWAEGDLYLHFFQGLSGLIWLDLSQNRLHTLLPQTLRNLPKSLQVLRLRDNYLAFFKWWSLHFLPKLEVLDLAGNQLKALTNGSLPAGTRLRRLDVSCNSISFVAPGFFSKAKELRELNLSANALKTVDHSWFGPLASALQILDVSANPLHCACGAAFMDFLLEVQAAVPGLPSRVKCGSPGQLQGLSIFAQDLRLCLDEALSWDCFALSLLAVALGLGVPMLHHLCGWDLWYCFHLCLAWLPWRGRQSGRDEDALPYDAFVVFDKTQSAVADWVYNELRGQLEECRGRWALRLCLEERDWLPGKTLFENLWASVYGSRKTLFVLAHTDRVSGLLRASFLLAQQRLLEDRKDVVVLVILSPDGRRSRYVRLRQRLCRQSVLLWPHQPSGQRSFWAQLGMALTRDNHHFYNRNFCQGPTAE
Experimental: as §1, §2

Row | Compound | pIC50 (human TLR8) | pIC50 (human TLR7) | pIC50 (human TLR9)
1 | CCn1nc(-c2[nH]c3ccc(C4CCNCC4)cc3c2C(C)C)c(C)c(C)c1=O [Example 27, 2-ethyl-6-(3-isopropyl-5-(piperidin-4-yl)-1H-indol-2-yl)-4,5-dimethylpyridazin-3(2H)-one] | 7.73 | 6.78 | –
2 | CC(C)c1c(-c2cc(CCC3CC3)c(=O)n(C)c2)[nH]c2ccc(C3CCNCC3)cc12 [Example 62, 3-(2-cyclopropylethyl)-5-(3-isopropyl-5-(piperidin-4-yl)-1H-indol-2-yl)-1-methylpyridin-2(1H)-one] | – | – | ≤ 4.30
3 | Cc1cc(-c2[nH]c3ccc(C4CCN(CCC(C(F)(F)F)C(F)(F)F)CC4)cc3c2C(C)C)cn(C)c1=O [Example 88, 5-(3-isopropyl-5-(1-(4,4,4-trifluoro-3-(trifluoromethyl)butyl)piperidin-4-yl)-1H-indol-2-yl)-1,3-dimethylpyridin-2(1H)-one] | 7.27 | 7.17 | –
4 | Cc1cc(-c2[nH]c3ccc(C4CCN(C5CCC(C(C)C)CC5)CC4)cc3c2C(C)C)cn(C)c1=O (centres unmarked) [Example 233, 5-(3-isopropyl-5-(1-(4-isopropylcyclohexyl)piperidin-4-yl)-1H-indol-2-yl)-1,3-dimethylpyridin-2(1H)-one] | 7.01 | 7.24 | –
5 | Cc1cc(-c2[nH]c3ccc(C4CCN(C5CCC(C(C)C)CC5)CC4)cc3c2C(C)C)cn(C)c1=O (centres unmarked) [Example 234, 5-(3-isopropyl-5-(1-(4-isopropylcyclohexyl)piperidin-4-yl)-1H-indol-2-yl)-1,3-dimethylpyridin-2(1H)-one] | 7.28 | 7.40 | –
6 | Cc1cc(-c2[nH]c3ccc(C4CCN(C(=O)[C@@H]5C[C@@H](O)CN5)CC4)cc3c2C(C)C)cn(C)c1=O [Example 293, 5-(5-(1-((2S,4R)-4-hydroxypyrrolidine-2-carbonyl)piperidin-4-yl)-3-isopropyl-1H-indol-2-yl)-1,3-dimethylpyridin-2(1H)-one] | – | 7.67 | –

Second part, the compound after the results:

Row | pIC50 (human TLR8) | pIC50 (human TLR7) | pIC50 (human TLR9) | Compound
7 | 7.99 | 7.94 | – | CC(C)c1c(-c2cc(-c3ccccc3)c(=O)n(C)c2)[nH]c2ccc(C3CCNCC3)cc12 [Example 53, 5-(3-isopropyl-5-(piperidin-4-yl)-1H-indol-2-yl)-1-methyl-3-phenylpyridin-2(1H)-one]
8 | 8.96 | 7.85 | – | CCCN1CCC(c2ccc3[nH]c(-c4cc(-c5cncnc5)c(=O)n(C)c4)c(C(C)C)c3c2)CC1 [Example 249, 5-(3-isopropyl-5-(1-propylpiperidin-4-yl)-1H-indol-2-yl)-1-methyl-3-(pyrimidin-5-yl)pyridin-2(1H)-one]
9 | 7.28 | 8.10 | – | Cc1cc(-c2[nH]c3ccc(C4CCN(C(=O)C5(N)CC5)CC4)cc3c2C(C)C)cn(C)c1=O [Example 272, 5-(5-(1-(1-aminocyclopropanecarbonyl)piperidin-4-yl)-3-isopropyl-1H-indol-2-yl)-1,3-dimethylpyridin-2(1H)-one]
10 | 7.21 | 7.76 | – | Cc1cc(-c2[nH]c3ccc(C4CCN(C(=O)[C@H]5C[C@H](O)CN5)CC4)cc3c2C(C)C)cn(C)c1=O [Example 288, 5-(5-(1-((2R,4S)-4-hydroxypyrrolidine-2-carbonyl)piperidin-4-yl)-3-isopropyl-1H-indol-2-yl)-1,3-dimethylpyridin-2(1H)-one]
11 | – | 8.08 | – | Cc1cc(-c2[nH]c3ccc(C4CCN(C(=O)[C@@H]5C[C@@H](O)CN5)CC4)cc3c2C(C)C)cn(C)c1=O [Example 290, 5-(5-(1-((2S,4R)-4-hydroxypyrrolidine-2-carbonyl)piperidin-4-yl)-3-isopropyl-1H-indol-2-yl)-1,3-dimethylpyridin-2(1H)-one]
12 | 7.39 | 8.14 | – | Cc1cc(-c2[nH]c3ccc(C4CCN(C(=O)[C@H]5C[C@H](O)CN5)CC4)cc3c2C(C)C)cn(C)c1=O [Example 292, 5-(5-(1-((2R,4S)-4-hydroxypyrrolidine-2-carbonyl)piperidin-4-yl)-3-isopropyl-1H-indol-2-yl)-1,3-dimethylpyridin-2(1H)-one]
13 | 7.49 | 7.80 | – | Cc1cc(-c2[nH]c3ccc(C4CCN(CC(C)(C)O)CC4)cc3c2C(C)C)cn(Cc2ccccc2)c1=O [Example 329, 1-benzyl-5-(5-(1-(2-hydroxy-2-methylpropyl)piperidin-4-yl)-3-isopropyl-1H-indol-2-yl)-3-methylpyridin-2(1H)-one]
